# Patent publication US7910593B2, “Water-soluble prodrugs” (Chugai Seiyaku Kabushiki Kaisha, priority 2004, dated 2011)
# What was measured:
# [1] = Test Example 1: conversion of compound 2A into activated form in dog serum; format: in vitro ADME; conditions: for compound 2A (measured values, %): dog serum, 50 μM, 37° C.
# Method: The percentages of compound 2A produced in Example 2 being converted into an activated form in sera of humans, mice, monkeys, and dogs were determined. The activated form is in a rapid equilibrium between the lactone form and the carboxylate form, which were quantified separately.
# Compound 2A was incubated at 37° C. at a concentration of 50 μM in sera of humans, mice, monkeys, and dogs. Incubation was terminated at a given time (0, 30, 60, 120, and 360 minutes), and the samples were analyzed by HPLC after deproteinization treatments.
# Conditions for the HPLC analysis are as follows: • HPLC conditions • Column: Develosil C30-UG-3, 3 μm, 50×4.6 mm I.D • Column Temperature: constant temperature at approximately 25° C. • Mobile phase: A: 10 mM phosphate buffer (pH4.7) • B: acetonitrile • /B (min): 90/10(0)→90/10(0.4)→40/60(6)→2/98(8)→90/10(9)→90/10(15)
# Flow rate: 1.0 mL/min • Detection: photodiode array detector, detection wavelength 350 nm • Amount injected: 30 μL
# (§1) Generally, camptothecins in solution are in a rapid equilibrium between a structure in which the carbonyl at position 3 forms a 6-membered cyclic ester with the oxygen at position 2, and its open-ring structure. The lactone form refers to the former condition and the carboxylate form refers to the latter condition.
# [2] = system: human colon cancer cell line HCT116; test: Test Example 4: antitumor effect in HCT116 tumor-bearing nude mice; format: in vivo, BALB/c nude mice; conditions: once per week for three weeks
# Method: Antitumor effects were determined for representative examples of the group of compounds of the present invention. Tumor-bearing mice were generated by subcutaneous transplantation of human colon cancer cell line HCT116 obtained from American Type Culture Collection (Virginia, USA) into the right flank of BALB/c nude mice purchased from Charles River Japan, and used for determination of antitumor effects.
# After a one-week quarantine period, the purchased nude mice were subjected to subcutaneous transplantation of 5×10^6 HCT116 cells at their right flank. Mice with a tumor size reaching 200 mm^3 or so were subjected to the experiment.
# The compounds were dissolved in 1 mM citric bufferes saline, pH 4, and administered intravenously. The administration was carried out once per week for three weeks, for a total of three administrations. The antitumor effect was determined as tumor growth inhibition (TGI) using the following equation. Tumor growth inhibition (TGI) (%)={(1−mean tumor volume change in the drug-treated group/mean tumor volume change in the control group)×100} The results are shown in Table 6.
# [3] = Test Example 3: solubility in distilled water; format: physicochemical; conditions: distilled water; read-out: Solubility in distilled water
# Description: The solubility of the water-soluble prodrugs obtained in the Examples (compounds 1A to 8A) in distilled water was compared to the solubility of (9S)-9-ethyl-9-hydroxy-1-pentyl-1H,12H-pyrano[3″,4″:6′,7′]indolizino[1′,2′:6,5]pyrido[4,3,2-de]quinazoline-10,13 (9H,15H)-dione (representative compound in Patent document 2: reference compound 1).
# [4] = Test Example 5: conversion of compound 2A into activated form in monkey sera; format: in vitro ADME; conditions: for compound 2A (measured values, %): Test Example 5, monkey sera, 50 μM, 37° C.
# Method: (§2) The percentages of compound 2A produced in Example 2 being converted into an activated form in sera of humans, rats, mice, monkeys, and dogs were determined. The activated form is in a rapid equilibrium between the lactone form and the carboxylate form, which were quantified separately.
# (§3) Compound 2A was incubated at 37° C. at a concentration of 50 μM in sera of humans, mice, rats, monkeys, and dogs. Incubation was terminated at a given time (0, 30, 60, 120, and 360 minutes), and the samples were analyzed by HPLC after deproteinization treatments.
# (§4) Conditions for the HPLC analysis are as follows: • HPLC conditions • Column: Develosil C30-UG-3, 3 μm, 35×4.6 mm I.D • Column Temperature: constant temperature at approximately 25° C. • Mobile phase: A: 10 mM phosphate buffer (pH4.7) • B: acetonitrile • /B (min): 90/10(0)→90/10(0.4)→40/60(6)→2/98(8)→90/10(9)→90/10(15) • Flow rate: 1.0 mL/min • Detection: photodiode array detector, detection wavelength 350 nm • Amount injected: 30 μL
# as §1
# [5] = Test Example 5: conversion of compound 2A into activated form in rat sera; format: in vitro ADME; conditions: for compound 2A (measured values, %): Test Example 5, rat sera, 50 μM, 37° C.
# Method: as §2, §3, §4, §1
smiles,measurement,setting,value
"CCCCCN1C=Nc2cccc3nc4c(c1c23)Cn1c-4cc2c(c1=O)COC(=O)[C@@]2(CC)OC(=O)CN(C)C(=O)CN.Cl [Compound 2A, (9S)-9-Ethyl-9-(glycyl-sarcosyloxy)-1-pentyl-1H,12H-pyrano[3″,4″:6′,7′]indolizino[1′,2′:6,5]pyrido[4,3,2-de]quinazoline-10,13(9H,15H)-dione hydrochloride]",conversion to the lactone form (in words),"[1]; dog sera, Test Example 1",quickly converted to the lactone form
same,"compound 2A (measured values, %)",[1]; incubation 0 minutes,0%
same,"compound 2A (measured values, %)",[1]; incubation 30 minutes,0%
same,"compound 2A (measured values, %)",[1]; incubation 60 minutes,0%
same,"compound 2A (measured values, %)",[1]; incubation 120 minutes,0%
same,"compound 2A (measured values, %)",[1]; incubation 360 minutes,0%
same,TGI (%) on Day 21,[2]; 0.9 mg/kg intravenously,45%
same,TGI (%) on Day 21,[2]; 1.9 mg/kg intravenously,52%
same,TGI (%) on Day 21,[2]; 3.75 mg/kg intravenously,72%
same,TGI (%) on Day 21,[2]; 7.5 mg/kg intravenously,74%
same,TGI (%) on Day 21,[2]; 15 mg/kg intravenously,85%
same,TGI (%) on Day 21,[2]; 30 mg/kg intravenously,97%
same,TGI (%) on Day 21,[2]; 60 mg/kg intravenously,110%
same,solubility,[3],> 10000 µg/mL
same,"compound 2A (measured values, %)",[4]; incubation 0 minutes,0%
same,"compound 2A (measured values, %)",[4]; incubation 30 minutes,0%
same,"compound 2A (measured values, %)",[4]; incubation 60 minutes,0%
same,"compound 2A (measured values, %)",[4]; incubation 120 minutes,0%
same,"compound 2A (measured values, %)",[4]; incubation 360 minutes,0%
same,conversion to the lactone form (in words),"[4]; monkey sera, Test Example 5",quickly converted to the lactone form
same,"compound 2A (measured values, %)",[5]; incubation 0 minutes,0%
same,"compound 2A (measured values, %)",[5]; incubation 30 minutes,0%
same,"compound 2A (measured values, %)",[5]; incubation 60 minutes,0%
same,"compound 2A (measured values, %)",[5]; incubation 120 minutes,0%
same,"compound 2A (measured values, %)",[5]; incubation 360 minutes,0%
same,conversion to the lactone form (in words),"[5]; rat sera, Test Example 5",quickly converted to the lactone form
